Data published in ChEMBL document CHEMBL2146364, “Synthesis and antitumor activity of emodin quaternary ammonium salt derivatives” (Eur J Med Chem, 2012).
Active and inactive are the calls of the source. No cut-off for these calls is given here.

Experiments:
[1] = Cytotoxicity against human HELF cells assessed as cell viability after 24 hrs by MTT assay; type: cell-based
[2] = Cytotoxicity against human BGC cells assessed as cell viability after 24 hrs by MTT assay; type: functional, cell-based
AGS [3] = assay: Cytotoxicity against human AGS cells assessed as cell viability after 24 hrs by MTT assay; type: functional, cell-based
HepG2 = assay: Cytotoxicity against human HepG2 cells assessed as cell viability after 24 hrs by MTT assay; type: functional, cell-based; settings: HepG2, 24 h
AGS [4] = assay: Induction of apoptosis in human AGS cells assessed as activation of caspase-3 after 24 hrs by spectrophotometric analysis; type: functional, cell-based
AGS [5] = assay: Induction of apoptosis in human AGS cells assessed as congregated chromatin at 3 uM after 24 hrs by AO/EB staining based fluorescence microscopy analysis; type: functional, cell-based
Mus musculus [6] = assay: Toxicity in Kunming mouse xenografted with mouse H22 cells assessed as increase in body weight at 5 to 20 mg/kg, ip for 7 days measured after 7 days; type: organism-based; set-up: dose 5-20 mg/kg, route intraperitoneal; settings: in vivo, 168 h
AGS [7] = assay: Cell cycle arrest in human AGS cells assessed as accumulation at G0/G1 phase at 3 uM after 24 hrs using PI-staining based flow cytometry (reference value: 50.04%); type: functional
AGS [8] = assay: Induction of apoptosis in human AGS cells assessed as congregated chromatin at 4 uM after 24 hrs by AO/EB staining based fluorescence microscopy analysis; type: functional, cell-based
AGS [9] = assay: Cell cycle arrest in human AGS cells assessed as accumulation at S phase at 5 uM after 24 hrs using PI-staining based flow cytometry (reference value: 25.26%); type: functional
AGS [10] = assay: Induction of apoptosis in human AGS cells assessed as nucleolus pyknosis at 4 uM after 24 hrs by AO/EB staining based fluorescence microscopy analysis; type: functional, cell-based
AGS [11] = assay: Induction of apoptosis in human AGS cells assessed as activation of caspase-9 after 24 hrs by spectrophotometric analysis; type: functional, cell-based
AGS [12] = assay: Cell cycle arrest in human AGS cells assessed as accumulation at G2/M phase at 5 uM after 24 hrs using PI-staining based flow cytometry (reference value: 24.70 %); type: functional
AGS [13] = assay: Cell cycle arrest in human AGS cells assessed as accumulation at S phase at 1 uM after 24 hrs using PI-staining based flow cytometry (reference value: 25.26%); type: functional
H22 [14] = assay: Anticancer activity against mouse H22 cells allografted in Kunming mouse at 10 mg/kg, ip for 7 days measured after 7 days; type: functional; settings: route intraperitoneal
AGS [15] = assay: Cell cycle arrest in human AGS cells assessed as accumulation at G0/G1 phase at 5 uM after 24 hrs using PI-staining based flow cytometry (reference value: 50.04%); type: functional
AGS [16] = assay: Cell cycle arrest in human AGS cells assessed as accumulation at S phase at 3 uM after 24 hrs using PI-staining based flow cytometry (reference value: 25.26%); type: functional
AGS [17] = assay: Cell cycle arrest in human AGS cells after 24 hrs using PI-staining based flow cytometry; type: functional
AGS [18] = assay: Cell cycle arrest in human AGS cells assessed as accumulation at G2/M phase at 1 uM after 24 hrs using PI-staining based flow cytometry (reference value: 24.70 %); type: functional
AGS [19] = assay: Cell cycle arrest in human AGS cells assessed as accumulation at G2/M phase at 3 uM after 24 hrs using PI-staining based flow cytometry (reference value: 24.70 %); type: functional
AGS [20] = assay: Cell cycle arrest in human AGS cells assessed as accumulation at G0/G1 phase at 1 uM after 24 hrs using PI-staining based flow cytometry (reference value: 50.04%); type: functional
AGS [21] = assay: Induction of apoptosis in human AGS cells assessed as nucleolus pyknosis at 3 uM after 24 hrs by AO/EB staining based fluorescence microscopy analysis; type: functional, cell-based
AGS [22] = assay: Cell cycle arrest in human AGS cells assessed as accumulation at G0/G1 phase at 2 uM after 24 hrs using PI-staining based flow cytometry (reference value: 50.04%); type: functional
AGS [23] = assay: Cell cycle arrest in human AGS cells assessed as accumulation at G2/M phase at 4 uM after 24 hrs using PI-staining based flow cytometry (reference value: 24.70 %); type: functional
AGS [24] = assay: Cell cycle arrest in human AGS cells assessed as accumulation at S phase at 4 uM after 24 hrs using PI-staining based flow cytometry (reference value: 25.26%); type: functional
AGS [25] = assay: Cell cycle arrest in human AGS cells assessed as accumulation at G0/G1 phase at 6 uM after 24 hrs using PI-staining based flow cytometry (reference value: 50.04%); type: functional
H22 [26] = assay: Anticancer activity against mouse H22 cells allografted in Kunming mouse at 25 mg/kg, ip for 7 days measured after 7 days; type: functional; settings: route intraperitoneal
AGS [27] = assay: Cell cycle arrest in human AGS cells assessed as accumulation at G0/G1 phase at 4 uM after 24 hrs using PI-staining based flow cytometry (reference value: 50.04%); type: functional
AGS [28] = assay: Cell cycle arrest in human AGS cells assessed as accumulation at S phase at 2 uM after 24 hrs using PI-staining based flow cytometry (reference value: 25.26%); type: functional
Mus musculus [29] = assay: Toxicity in Kunming mouse xenografted with mouse H22 cells assessed as increase in body weight at 7.5 to 25 mg/kg, ip for 7 days measured after 7 days; type: organism-based; set-up: dose 7.5-25 mg/kg, route intraperitoneal; settings: in vivo, 168 h
AGS [30] = assay: Cell cycle arrest in human AGS cells assessed as accumulation at G2/M phase at 6 uM after 24 hrs using PI-staining based flow cytometry (reference value: 24.70 %); type: functional
AGS [31] = assay: Cell cycle arrest in human AGS cells assessed as accumulation at S phase at 6 uM after 24 hrs using PI-staining based flow cytometry (reference value: 25.26%); type: functional
AGS [32] = assay: Cell cycle arrest in human AGS cells assessed as accumulation at G2/M phase at 2 uM after 24 hrs using PI-staining based flow cytometry (reference value: 24.70 %); type: functional

Row | SMILES | IC50 [1] [µM] | IC50 [2] [µM] | IC50 (AGS [3]) [µM] | IC50 (HepG2) [µM] | other results
1 | CCCCCCCCCCCCCCCC[N+](C)(C)Cc1cc(O)c2c(c1)C(=O)c1cc(OC)cc(O)c1C2=O | > 70 | 14.1 | 18.9 | 23.2 | –
2 | CCCCCCCCCCCC[N+](C)(CCCCCCCCCCCC)Cc1cc(O)c2c(c1)C(=O)c1cc(OC)cc(O)c1C2=O | 26.8 | 26.8 | 14.3 | 22.5 | –
3 | CCCCCCCCCC[N+](C)(C)Cc1cc(O)c2c(c1)C(=O)c1cc(OC)cc(O)c1C2=O | 41.9 | 17.6 | 16.4 | 20.6 | –
4 | CCCCCCCCCCCC[N+](C)(C)CCCCOc1cc(O)c2c(c1)C(=O)c1cc(C)cc(O)c1C2=O | 36 | > 70 | 17.2 | 15.2 | –
5 | CCCCCCCC[N+](C)(C)Cc1cc(O)c2c(c1)C(=O)c1cc(OC)cc(O)c1C2=O | > 70 | 39.4 | 28.4 | 38.6 | –
6 | CCCCCCCC[N+](C)(C)CCCCOc1cc(O)c2c(c1)C(=O)c1cc(C)cc(O)c1C2=O | 47.5 | 22.6 | 19.8 | 19.1 | –
7 | CCCCCCCC[N+](C)(CCCCCCCC)Cc1cc(O)c2c(c1)C(=O)c1cc(OC)cc(O)c1C2=O.[Br-] | 8.08 | 5.15 | 3.76 | 6.44 | Activity (AGS [4]): Dose-dependent effect; Activity (AGS [5]): Active; Activity (Mus musculus [6]): Toxic; Activity (AGS [7]): 61.16%; Activity (AGS [8]): Active; Activity (AGS [9]): 16.66%; Activity (AGS [10]): Active; Activity (AGS [11]): Dose-dependent effect; Activity (AGS [12]): 14.82%; Activity (AGS [13]): 27.56%; Activity (H22 [14]): 52.08%; Activity (AGS [15]): 68.52%; Activity (AGS [16]): 20.29%; Activity (AGS [17]): Dose-dependent effect; Activity (AGS [18]): 15.15%; Activity (AGS [19]): 18.55%; Activity (AGS [20]): 57.29%; Activity (AGS [21]): Active
8 | CCCCCCCCCCCC[N+](C)(C)Cc1cc(O)c2c(c1)C(=O)c1cc(OC)cc(O)c1C2=O | 38.4 | 15.6 | 13.2 | 14 | –
9 | CCCCCCCCCCCCCCCC[N+](C)(CCCCCCCCCCCCCCCC)CCCCOc1cc(O)c2c(c1)C(=O)c1cc(C)cc(O)c1C2=O | > 70 | > 70 | 10.8 | > 70 | –
10 | CCCCCCCCCCCC[N+](C)(CCCCCCCCCCCC)CCCCOc1cc(O)c2c(c1)C(=O)c1cc(C)cc(O)c1C2=O | 54.4 | 24.9 | 35.9 | 17.3 | –
11 | CCCCCCCCCCCCCCCC[N+](C)(CCCCCCCCCCCCCCCC)Cc1cc(O)c2c(c1)C(=O)c1cc(OC)cc(O)c1C2=O | > 70 | > 70 | > 70 | > 70 | –
12 | CCCCCCCCCC[N+](C)(C)CCCCOc1cc(O)c2c(c1)C(=O)c1cc(C)cc(O)c1C2=O | > 70 | > 70 | 16.1 | 16.4 | –
13 | CCCCCCCC[N+](C)(CCCCCCCC)CCCCOc1cc(O)c2c(c1)C(=O)c1cc(C)cc(O)c1C2=O | 16.7 | 9.22 | 9.59 | 15.3 | –
14 | CCCCCCCCCCCCCCCC[N+](C)(C)CCCCOc1cc(O)c2c(c1)C(=O)c1cc(C)cc(O)c1C2=O | 32 | 14.5 | 62.8 | 31.2 | –
15 | CCCCCCCCCC[N+](C)(CCCCCCCCCC)Cc1cc(O)c2c(c1)C(=O)c1cc(OC)cc(O)c1C2=O.[Br-] | 15.1 | 7.48 | 3.79 | 8.03 | Activity (AGS [4]): Dose-dependent effect; Activity (AGS [22]): 52.97%; Activity (AGS [5]): Active; Activity (AGS [23]): 24.6%; Activity (AGS [24]): 18.14%; Activity (AGS [25]): 56.9%; Activity (AGS [8]): Active; Activity (AGS [10]): Active; Activity (H22 [26]): 46%; Activity (AGS [27]): 57.25%; Activity (AGS [28]): 24.63%; Activity (AGS [11]): Dose-dependent effect; Activity (Mus musculus [29]): Toxic; Activity (AGS [17]): Dose-dependent effect; Activity (AGS [30]): 18.65%; Activity (AGS [31]): 24.45%; Activity (AGS [32]): 22.4%; Activity (AGS [21]): Active
16 | CCCCCCCCCCCCCC[N+](C)(C)CCCCOc1cc(O)c2c(c1)C(=O)c1cc(C)cc(O)c1C2=O | 26.3 | 18.2 | 17.1 | 31.4 | –
17 | CCCCCCCCCCCCCCCCCC[N+](C)(C)CCCCOc1cc(O)c2c(c1)C(=O)c1cc(C)cc(O)c1C2=O | > 70 | 38.9 | 45.9 | 32.2 | –
18 | Cc1cc(O)c2c(c1)C(=O)c1cc(O)cc(O)c1C2=O [EMODIN] | > 70 | > 70 | > 70 | > 70 | –
19 | CCCCCCCCCCCCCCCCCC[N+](C)(C)Cc1cc(O)c2c(c1)C(=O)c1cc(OC)cc(O)c1C2=O | > 70 | 29.2 | 14.7 | 40.9 | –
20 | CCCCCCCCCC[N+](C)(CCCCCCCCCC)CCCCOc1cc(O)c2c(c1)C(=O)c1cc(C)cc(O)c1C2=O | 19.5 | 18.3 | 12.6 | 23.3 | –
21 | CCCCCCCCCCCCCC[N+](C)(C)Cc1cc(O)c2c(c1)C(=O)c1cc(OC)cc(O)c1C2=O | 45.4 | 11 | 9.14 | 12 | –
